The text below walks through data of ChEMBL document CHEMBL3525978, “Preferred binding orientations of phenacetin in CYP1A1 and CYP1A2 are associated with isoform-selective metabolism” (Drug Metab Dispos, 2012).

Holding throughout (format): ADME
In one series the target is T1, Cytochrome P450 1A2 (Homo sapiens, UniProt P05177).
T1 sequence (P05177 whole entry): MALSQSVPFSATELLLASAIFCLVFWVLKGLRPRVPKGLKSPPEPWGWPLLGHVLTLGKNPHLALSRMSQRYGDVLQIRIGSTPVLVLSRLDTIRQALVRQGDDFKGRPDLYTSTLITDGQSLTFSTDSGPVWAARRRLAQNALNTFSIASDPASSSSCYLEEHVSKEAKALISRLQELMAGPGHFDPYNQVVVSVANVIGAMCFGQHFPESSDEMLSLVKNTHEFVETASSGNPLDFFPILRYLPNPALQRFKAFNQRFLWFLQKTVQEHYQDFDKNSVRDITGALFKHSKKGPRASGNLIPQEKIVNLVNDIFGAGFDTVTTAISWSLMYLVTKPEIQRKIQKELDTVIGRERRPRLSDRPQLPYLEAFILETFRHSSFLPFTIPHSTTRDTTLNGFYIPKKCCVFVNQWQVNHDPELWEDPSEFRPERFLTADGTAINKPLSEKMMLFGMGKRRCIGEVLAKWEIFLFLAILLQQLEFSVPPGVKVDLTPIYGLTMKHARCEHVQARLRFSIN
Nature of the series: Ratio of Kcat to Km for CYP1A2 (unknown origin) expressed in Escherichia coli DH5alpha preincubated for 5 mins before NADPH addition measured after 30 mins by HPLC analysis. Conditions: 0.5 h.

The target in another series is T2, Cytochrome P450 1A1 (Homo sapiens, UniProt P04798).
T2 sequence (P04798 whole entry): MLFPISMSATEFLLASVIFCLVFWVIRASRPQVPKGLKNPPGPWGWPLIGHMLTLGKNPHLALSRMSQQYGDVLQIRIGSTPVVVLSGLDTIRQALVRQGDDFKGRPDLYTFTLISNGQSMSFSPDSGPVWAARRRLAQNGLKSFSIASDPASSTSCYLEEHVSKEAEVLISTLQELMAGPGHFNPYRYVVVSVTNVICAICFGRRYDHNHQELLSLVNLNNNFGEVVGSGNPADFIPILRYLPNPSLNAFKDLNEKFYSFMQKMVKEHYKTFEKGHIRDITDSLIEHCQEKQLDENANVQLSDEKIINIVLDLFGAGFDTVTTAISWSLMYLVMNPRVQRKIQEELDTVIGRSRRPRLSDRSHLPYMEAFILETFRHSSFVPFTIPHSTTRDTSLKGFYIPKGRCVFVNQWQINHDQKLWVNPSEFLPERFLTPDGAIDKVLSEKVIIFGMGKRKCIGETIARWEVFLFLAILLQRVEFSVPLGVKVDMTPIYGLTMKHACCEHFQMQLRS
The experiment in a line: Ratio of Kcat to Km for CYP1A1 (unknown origin) expressed in Escherichia coli DH5alpha preincubated for 5 mins before NADPH addition measured after 30 mins by HPLC analysis. Particulars: 0.5 h.

The next series deals with CYP1A1, CYP1A2. The experiment in a line: Ratio of Km for CYP1A1 (unknown origin) expressed in Escherichia coli DH5alpha to Km for CYP1A2 (unknown origin) expressed in Escherichia coli DH5alpha. Particulars: human.
The nature of series [1]: Ratio of Kcat for CYP1A2 (unknown origin) expressed in Escherichia coli DH5alpha to Kcat for CYP1A1 (unknown origin) expressed in Escherichia coli DH5alpha. Conditions: human.

Take `CC(=O)Nc1ccc(O)cc1` [ACETAMINOPHEN]: the Kcat/Km was 0.018 at Cytochrome P450 1A2 and 0.001 on Cytochrome P450 1A1.

With `CCOc1ccc(NC(C)=O)cc1` [PHENACETIN], the selectivity ratio in the series on CYP1A1, CYP1A2 amounted to 8. For the same compound, in series [1], the Ratio is listed as 2.5.
